Experiments:
[1] = system: endothelial progenitor cell; conditions: cited from earlier work
[2] = Tissue uptake of estradiol administered locally with a catheter; format: in vivo; conditions: 10 mg administered with a catheter over a few seconds
Procedure: Stents and hormone used for the procedures The polymer poly (ester-amide) (PEA)/estradiol (E2) stents used in Examples presented herein were prepared by MicroPort (MicroPort Medical Co, Ltd. Shanghai). Stainless steel bare metal stents were of 18 mm and 23 mm length and were spray coated by MicroPort with 300 μg or 500 μg of E2 matrixed with MediVas™ poly (ester-amide) (MVPEA.I.(Ac)) tempo polymer. […] The sizes of Cypher™ stents were; 3×18 mm, 3.5×18 mm, 3×23 mm, 3.5×23 mm (Johnson & Johnson). The sizes of Taxus™ stents were 2.25×12 mm, 3×16 mm, 3.5×16 mm, 3×24 mm, 3.5×24 mm (Boston Scientific). The estradiol (USP) used to load the polymer poly (ester-amide) (PEA)/E2 stents was bought from Xenex labs (Coquitlam, Canada) and send to Microport. The estradiol used for local delivery by catheter in the objective 2 was the water soluble form coupled with hydroxypropyl-heta-cyclodextrin (HPCD).

[3] = format: in vivo
Procedure: Tissue samples and stents were analyzed for each animal for estrogen content. The right coronary artery (RCA) and the left anterior descending artery (LAD) were opened longitudinally and cut into 6 pieces; 2 in the proximal region, 2 in the medial region and 2 in the distal region of the stented segment. One piece in each region was analyzed and the other one was kept as a backup. To evaluate the migration of E2 through the arterial wall, the left circumflex artery (LCX) was dissected to separate the adventitia from the rest of the artery and the two fractions were analyzed individually. […] After centrifugation, sera were collected for extraction and analysis by GC/MS.
Hormones Deuterium-labeled estradiol 2,4,16,16,17-D5 (17β-D5) (CDN Isotopes, Pointe Claire, Canada) and micronized estradiol (USP, Xenex labs, Coquitlam, Canada) were used respectively as internal and external controls.
Extraction of steroids—17β-estradiol extraction in pig serum. Blood samples of 8.5 mL were collected at specific time from each animal in the coronary sinus using an 8 French guiding catheter at baseline, 10 min and 1 hr after stent implantation and at sacrifice. Samples were centrifuged at 1800 rpm at 4° C. for 10 minutes. […]
Estrogen quantification data Estrogen quantification was performed by Gas Chromatography/Mass Spectroscopy (GC/MS) as described above. Diffusion of E2 from the stent was determined in tissue in direct contact with the stent (coronary tissues proximal, medial, distal (see FIG. 9)), in close proximity (reference proximal, reference distal, adventitia, peri-coronary muscle, peri-coronary white fat (see FIG. 10)) or at distal sites potentially exposed to E2 released from the stent into the blood (carotid artery, femoral artery, apex, auricle, lung, kidney and liver). To obtain the total amount of E2 in an artery, E2 content measured by GC/MS in the proximal, medial and distal portions of each stented coronary segment were added together. […] The E2 content of the total adventitia dissected from each RCA was also determined.

[4] = system: foetal bovine aortic endothelial cell; conditions: cited from earlier work

## C[C@]12CC[C@@H]3c4ccc(O)cc4CC[C@H]3[C@@H]1CC[C@@H]2O [estradiol, 17-β-Estradiol]
[1]
  concentration with strong negative effect on endothelial progenitor cell growth: ≥ 10 µM
[2]
  amount in the tissue overall: 51 µg
  fraction of dose up-taken by the tissue: 0.51%
[3]; detected in adventitia, peri-coronary muscle and white fat tissues
  penetration of estradiol through the arterial wall: deep penetration
[3]; first 48 hours, 500 μg E2 stent
  mean concentration of estradiol in coronary tissue: 12.0 μg/g of tissue
[3]; in vivo
  E2 concentration in tissues at distal location from stent: at baseline level
[4]
  concentration at which enhancement of foetal bovine aortic endothelial cell growth was lost: ≥ 100 nM

From patent US20090274738A1, “IMPLANTABLE DEVICES FOR PROMOTING REENDOTHELIALIZATION AND METHODS OF USE THEREOF” (priority 2008, published 2009)
